Our source for the MEMRI signal values is patent US20160199517A1, “MRI EVALUATION OF HETEROGENEOUS TISSUE” (The Board of Trustees of the Leland Stanford Junior …, priority 2015, published 2016).

The test deals with Ca^2+ channel. Briefly: MEMRI signal modulated by Ca2+ channel activity in single cell culture. The format is cell-based, human. Conditions: cells labelled with Mn^2+; Ca^2+ channel antagonist or agonist.

Turning to (s)-Bay K8644, the MEMRI signal result is listed as “increased”.
